Patent US20210267996A1, “Compounds for inhibition of inflammation” (Children`s Medical Center Corporation, priority 2018, published 2021)
Entries after “also recorded” stand apart in the source; their conditions may differ.

Key:
caspase-11 = target: T1, caspase-11 (Mus musculus, UniProt P70343); experiment: Caspase-11 inhibition assay (Ac-YVAD-AMC); format: biochemical
T1 construct: made in house; host or cells: Sf9 (baculovirus)
T1 sequence (P70343 81-373): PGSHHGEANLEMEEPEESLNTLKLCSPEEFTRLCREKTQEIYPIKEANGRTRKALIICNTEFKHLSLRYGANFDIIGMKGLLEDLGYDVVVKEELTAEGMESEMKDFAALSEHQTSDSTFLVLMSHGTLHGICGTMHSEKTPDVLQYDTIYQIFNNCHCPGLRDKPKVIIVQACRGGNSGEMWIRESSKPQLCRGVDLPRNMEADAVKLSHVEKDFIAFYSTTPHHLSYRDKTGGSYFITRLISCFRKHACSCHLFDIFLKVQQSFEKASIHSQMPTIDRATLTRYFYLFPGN
Description: Caspase-1 and caspase-11 inhibition assays: the fluorogenic assay for caspase-1 and caspase-11 activity is based on release of 7-amino-4-methylcoumarin (AMC) from the caspase substrate Ac-YVAD-AMC. Compounds (8 nM-50 μM) were incubated with 0.5 U of caspase-1 or caspase-11 for 30 min in assay buffer (20 mM HEPES, 150 mM NaCl) in 384-well plates (Corning 3820) before addition of Ac-YVAD-AMC (40 μM) to initiate the reactions. Reactions were monitored in a SpectraMax M5 plate reader (Molecular Devices, Sunnyvale, Calif. USA) with excitation/emission wavelengths at 350/460 nm. The fluorescence intensity of each reaction was recorded every 2 min for 2 hrs.
Fluorescence intensity at 460 nm was measured after excitation at 350 nm.

caspase-1 = experiment: Caspase-1 activity assay in cells (FAM-YVAD-FMK); format: cell-based, human; conditions: 30 μM, 30 min after nigericin
Description: Caspase-1 activity assay in cells: to measure caspase-1 activation, THP-1 cells were seeded into 96-well plates and differentiated with PMA. After the indicated treatments, cells were incubated with a fluorescent active caspase-1 substrate FAM-YVAD-FMK (Immunochemistry Technologies). Samples were read on a BioTek Synergy 2 plate reader.
(§1) Cell death was determined by CytoTox96 assay. […] Cell death was determined by CytoTox96 assay. […] Shown are immunoblots of whole cell lysates harvested 0.5 hr later. […] Representative images of ASC specks (arrowheads) and mean±s.d. percent of cells with ASC specks analyzed 20 min later (FIG. 47). Whole cell lysates (WCL) and culture supernatants (Sup) were harvested 30 min after adding nigericin and immunoblotted with the indicated antibodies (FIG. 50). Caspase-1 activity was assayed 30 min after adding nigericin using a cell-permeable fluorescence dye FAM-YVAD-FMK (FIG. 52). […] Representative images of ASC specks (arrowheads) and mean±s.d. percent of cells with ASC specks analyzed 20 min later (FIGS. 48 and 49). Whole cell lysates (WCL) and culture supernatants (Sup), harvested 30 min after adding nigericin, were analyzed by immunoblot (FIG. 51). […] The Figures show representative confocal microscopy images and quantification of proportion of cells with GSDMD membrane staining and pyroptotic bubbles. Arrows indicate GSDMD staining of pyroptotic bubbles. […] FIGS. 57 and 58, dose response curve of the effect of Bay 11-7082 on caspase-1 (FIG. 57) and caspase-11 (FIG. 58) activity against a fluorescent peptide substrate. […] (FIG. 60). FIGS. 61 and 62 show dose response curve of the effect of Bay 11-7082 on liposome leakage induced by 0.3 μM human GSDMD-3C (FIG. 61) or mouse GSDMA3-3C (FIG. 62) plus 0.15 μM 3C protease. […] 2-fold dilutions of Bay 11-7082 from 5-40 μM were used. Graphs show the mean±s.d; data are representative of three independent experiments. *P<0.05, **P<0.01.

ASC specks = experiment: ASC speck formation in LPS-primed THP-1 cells plus nigericin; format: cell-based, human; conditions: for ASC speck formation: 1 hr before nigericin
Description: Immunostaining and confocal microscopy: cells grown on coverslips were fixed for 15 min with 4% paraformaldehyde in PBS, permeabilized for 5 min in 0.1% Triton X-100 in PBS and blocked using 5% BSA for 1 hr. Then, cells were stained with the indicated primary antibodies followed by incubation with fluorescent-conjugated secondary antibodies (Jackson ImmunoResearch). Nuclei were counterstained with DAPI (4,6-diamidino-2-phenylindole) (Sigma-Aldrich). Slides were mounted using Aqua-Poly/Mount (Dako). Images were captured using a laser scanning confocal microscope (Olympus Fluoview FV1000 Confocal System) with a 63× water immersion objective and Olympus Fluoview software (Olympus). All confocal images are representative of three independent experiments.
Nigericin activates the assembly of the NLRP3 canonical inflammasome using an adaptor called apoptosis-associated speck-like protein containing a caspase recruitment domain (ASC), which can be visualized in immunofluorescent microscopy as specks. When LPS-primed THP-1 cells were treated with nigericin in the absence of inhibitors, ASC specks were detected in 30% of cells (FIG. 36). As expected, speck formation was not inhibited by z-VAD-fmk, since caspase activation occurs downstream of inflammasome assembly.
as §1

[1] = system: caspase-1, GSDMD, and pro-IL-1β; experiment: Caspase-1, GSDMD, pro-IL-1β cleavage and IL-1β secretion by immunoblot, THP-1; format: cell-based, human; conditions: 30 μM; for caspase-1, GSDMD and pro-IL-1β cleavage: 30 min after nigericin
Description: Immunoblot analysis: cell extracts were prepared using RIPA buffer (50 mM Tris-HCl pH 7.4, 150 mM NaCl, 1 mM EDTA, 1% Triton X-100, 0.1% SDS, 0.5% deoxycholate) supplemented with a complete protease inhibitor cocktail (Roche) and a PhosSTOP phosphatase inhibitor cocktail (Roche). Samples were subjected to SDS-PAGE and the resolved proteins were then transferred to a PVDF membrane (Millipore). Immunoblots were probed with indicated antibodies and visualized using a SuperSignal West Pico chemiluminescence ECL kit (Pierce).
To assess which steps in NLRP3-mediated inflammation were inhibited post ASC speck formation, LPS-primed THP-1 cells were treated with vehicle or 30 μM z-VAD-fmk, disulfiram or Bay 11-7082 1 hr before adding nigericin, and cleavage and activation of caspase-1, GSDMD, and pro-IL-1β were analysed by immunoblot of whole cell lysates 30 min later (FIG. 50). Secretion of processed IL-1β was also assessed by immunoblot of culture supernatants. […] Because immunoblots are not quantitative, caspase-1 activity 30 min after adding nigericin was also assessed using a fluorescent substrate in intact cells. […] Next, the effect of z-VAD-fmk, disulfiram and Bay 11-7082 on LPS+nigericin-induced GSDMD pore formation was assessed by immunofluorescence microscopy using a monoclonal antibody that was generated that recognizes both uncleaved GSDMD and its pore form (FIGS. 53, 54, and 64-66). In the absence of any inhibitor, the GSDMD antibody stained both the cytosol and the plasma membrane of LPS plus nigericin treated cells, which formed characteristic pyroptotic bubbles (See Reference 10). […] Thus, disulfiram and Bay 11-7082 inhibit multiple steps leading to canonical inflammasome-induced pyroptosis and inflammatory cytokine release, including priming, inflammasome assembly, inflammatory caspase activation, pro-inflammatory cytokine processing and GSDMD pore formation.
as §1
Canonical inflammasome assembly activates caspase-1, which cleaves pro-IL-1β and GSDMD, and the latter is needed to release processed IL-1β and to induce pyroptosis. […]

Row | SMILES | IC50 (caspase-11) [µM] | effect of Cu(II) on caspase-11 inhibition (caspase-11; with Cu(II)) | caspase-1 activity in intact cells (caspase-1) | ASC puncta (ASC specks; 1 μM with copper gluconate) | cells with ASC specks (ASC specks; 30 μM, 1 hour before nigericin) | ASC speck formation (ASC specks; 30 μM) | caspase-1, GSDMD and pro-IL-1β cleavage ([1]; listed as disulfiram) | processing of caspase-1, GSDMD and pro-IL-1β ([1]; 60 min after nigericin) | processed IL-1β in culture supernatants ([1]; listed as disulfiram) | times less active against caspase-11 than disulfiram (caspase-11) | processed IL-1β in culture supernatants [1] | caspase-1, GSDMD and pro-IL-1β cleavage [1]
1 | CCN(CC)C(=S)SSC(=S)N(CC)CC [C-23, Tetraethylthiuram disulfide] | 0.73 ± 0.07 | did not strongly change | only partially reduced | reduced ASC puncta | about 20 % of cells | inhibited ASC speck formation, but not completely | dramatically reduced; also recorded: processing was reduced | caught up with what was detected in the absence of inhibitors | only detected in the culture supernatants in the absence of any inhibitor; also recorded: completely inhibited cytokine release |  |  | 
2 | Cc1ccc(S(=O)(=O)/C=C/C#N)cc1 [Bay 11-7082] |  |  | only partially reduced |  |  | inhibited ASC speck formation, but not completely |  |  |  | about 3 fold | only detected in the culture supernatants in the absence of any inhibitor | dramatically reduced
